Like-named read-outs stand apart in the source and are kept apart here.

What all share (assay type): cell-based, human
In assay [1] the test system is HT-29 (colorectal carcinoma, B-RafV600E) cells. The assay can be described thus: Cell proliferation (Alamar Blue) assay, HT-29. The conditions noted are these: Homo sapiens, HT-29, HT29 cells. In a few lines: (§1)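 After overnight plating (16-24 h), cells were treated for 72 h with compound dilutions spanning roughly 0.0005 to 10 uM. Proliferation was measured by Alamar Blue fluorescence and IC50 values derived from variable-slope dose-response curves.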

The subject of assay [2] is HCT116 (colorectal carcinoma, K Ras G13D) cells. The assay can be described thus: Cell proliferation (Alamar Blue) assay, HCT116. The note with it: Homo sapiens, HCT-116, HCT116 cells. In a few lines:
as §1

Assay [3] deals with phosphorylation of RSK1(S380) (the downstream target of ERK1/2). The assay can be described thus: Phospho-RSK1(S380) ELISA assay in HT-29 cells. The conditions noted are these: Homo sapiens, HT-29, HT29 cells, read-out: Mechanistic Cell Assay RSK1 Phos HT29 IC50. In a few lines:
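HT-29 colorectal carcinoma cells (B-RafV600E), plated overnight at 37° C./5% CO2, were treated with compound dilutions for 2 h. Lysates were analysed by phospho-RSK1(Ser380) sandwich ELISA with absorbance at 450 nm. IC50 came from a sigmoidal variable-slope dose-response fit.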
(In general: In an ELISA, binding on a coated surface is turned into a signal by an enzyme label.)

Regarding `O=C(NC(CO)c1cccc(Cl)c1)c1cn(-c2ccnc(Nc3ccc4c(c3)CCO4)c2)cn1` (stereo not drawn) [Cmpd 163, N-(1-(3-chloro-phenyl)-2-hydroxy-ethyl)-1-(2-((2,3-dihydro-benzofuran-5-yl)amino)pyridin-4-yl)-1H-imidazole-4-carboxamide], the IC50 was 500 to 2500 nM in assay [1], greater than 2500 nM in assay [2] and 100 to 250 nM in assay [3] (phospho-RSK1(S380)).

`Cc1cnc(NC2CCNC2)nc1-n1ccc(C(=O)N[C@H](CO)c2cccc(Cl)c2)c1` (stereo partly drawn) [Example 174, N-((S)-1-(3-chlorophenyl)-2-hydroxyethyl)-1-(5-methyl-2-(pyrrolidin-3-ylamino)pyrimidin-4-yl)-1H-pyrrole-3-carboxamide]: the IC50 in assay [1], in assay [2] and in assay [3] (phospho-RSK1(S380)) was greater than 2500 nM throughout.

In the case of `O=C(NC(CO)c1ccccc1)c1ccn(-c2ccnc(Nc3ccccc3)c2)c1` (stereo not drawn) [Example 71, N-(2-hydroxy-1-phenylethyl)-1-(2-(phenylamino)pyridin-4-yl)-1H-pyrrole-3-carboxamide], the IC50 in assay [1] was 500 to 2500 nM; in assay [2] it was greater than 2500 nM; in assay [3] (phospho-RSK1(S380)), 250 to 500 nM.

Take `CC[C@H](CO)Nc1ncc(C)c(-n2ccc(C(=O)NC(CO)c3cccc(Cl)c3)c2)n1` (stereo partly drawn) [Example 167, N-(1-(3-chloro-phenyl)-2-hydroxy-ethyl)-1-(2-(((R)-1-hydroxy-butan-2-yl)amino)-5-methyl-pyrimidin-4-yl)-1H-pyrrole-3-carboxamide]: the 50% inhibitory concentration (IC50) in assay [1] was 500 to 2500 nM; in assay [2], greater than 2500 nM; in assay [3] (phospho-RSK1(S380)), 500 to 2500 nM.

For the compound `Cc1cnc(NC2CCOCC2)nc1-n1cnc(C(=O)N[C@H](CNCc2ccc[nH]2)c2cccc(Cl)c2)c1` [Example 306, (S)-N-(2-(((1H-pyrrol-2-yl)methyl)amino)-1-(3-chlorophenyl)ethyl)-1-(5-methyl-2-((tetrahydro-2H-pyran-4-yl)amino)pyrimidin-4-yl)-1H-imidazole-4-carboxamide], the values for the IC50 in assay [1], in assay [2] and in assay [3] (phospho-RSK1(S380)) were no more than 100 nM, no more than 100 nM and 100 to 250 nM, respectively.

For the compound `CC[C@@H](CO)Nc1ncc(C)c(-n2ccc(C(=O)N[C@H](CO)c3cccc(Cl)c3)c2)n1` [Example 219, N-((S)-1-(3-chlorophenyl)-2-hydroxyethyl)-1-(2-(((S)-1-hydroxybutan-2-yl)amino)-5-methylpyrimidin-4-yl)-1H-pyrrole-3-carboxamide], the IC50 in assay [1] lay within 100 to 250 nM; in assay [2], 500 to 2500 nM; in assay [3] (phospho-RSK1(S380)), 250 to 500 nM.

On to `Cc1cnc(Nc2ccc3[nH]ncc3c2)nc1-n1ccc(C(=O)NC(CO)c2ccccc2)c1` (stereo not drawn) [Example 140, 1-(2-((1H-indazol-5-yl)amino)-5-methyl-pyrimidin-4-yl)-N-(2-hydroxy-1-phenylethyl)-1H-pyrrole-3-carboxamide], for which the figures for the concentration for half-maximal inhibition (IC50) in assay [1], in assay [2] and in assay [3] (phospho-RSK1(S380)) were 500 to 2500 nM, 500 to 2500 nM and greater than 2500 nM, respectively.

Regarding `Cc1cnc(Nc2ccc3c(c2)CCCO3)nc1-n1ccc(C(=O)NC(CO)c2ccccc2)c1` (stereo not drawn) [Example 173, 1-(2-(chroman-6-ylamino)-5-methylpyrimidin-4-yl)-N-(2-hydroxy-1-phenylethyl)-1H-pyrrole-3-carboxamide], the 50% inhibitory concentration (IC50) in assay [1], in assay [2] and in assay [3] (phospho-RSK1(S380)) was 100 to 250 nM each time.

Take `Cc1cnc(Nc2ccc3occc3c2)nc1-n1cnc(C(=O)NC(CO)c2cccc(Cl)c2)c1` (stereo not drawn) [Example 132, 1-(2-(benzo-furan-5-ylamino)-5-methyl-pyrimidin-4-yl)-N-(1-(3-chlorophenyl)-2-hydroxy-ethyl)-1H-imidazole-4-carboxamide]: the half-maximal inhibitory concentration (IC50) in assay [1], in assay [2] and in assay [3] (phospho-RSK1(S380)) was 500 to 2500 nM throughout.

As to `Cc1cnc(NC2CCOCC2)nc1-n1cnc(C(=O)N[C@@H](CN)c2cc(F)cc(Cl)c2)c1` [Example 276, (R)-N-(2-amino-1-(3-chloro-5-fluorophenyl)ethyl)-1-(5-methyl-2-((tetrahydro-2H-pyran-4-yl)amino)pyrimidin-4-yl)-1H-imidazole-4-carboxamide], the IC50 fell in the range of 250 to 500 nM in assay [1], 500 to 2500 nM in assay [2] and 100 to 250 nM in assay [3] (phospho-RSK1(S380)).

Turning to `O=C(NC(CO)c1cccc(Cl)c1)c1cn(-c2cc(Nc3ccccc3)ncc2Cl)cn1` (stereo not drawn) [Cmpd 106, 1-(5-chloro-2-(phenyl-amino)pyridin-4-yl)-N-(1-(3-chlorophenyl)-2-hydroxy-ethyl)-1H-imidazole-4-carboxamide], the values for the concentration for half-maximal inhibition (IC50) in assay [1], in assay [2] and in assay [3] (phospho-RSK1(S380)) were 500 to 2500 nM, greater than 2500 nM and 100 to 250 nM, respectively.

For the compound `Cc1cnc(Nc2ccc3c(c2)OCO3)nc1-n1ccc(C(=O)N[C@H](CO)c2ccccc2)c1` [Example 60, (S)-1-(2-(benzo[d][1,3]dioxol-5-ylamino)-5-methyl-pyrimidin-4-yl)-N-(2-hydroxy-1-phenylethyl)-1H-pyrrole-3-carboxamide], the IC50 in assay [1] was no more than 100 nM; in assay [2], 100 to 250 nM; in assay [3] (phospho-RSK1(S380)), no more than 100 nM.

With `Cc1cnc(Nc2ccc(C3CCNCC3)cc2)nc1-n1ccc(C(=O)NC(CO)c2cccc(Cl)c2)c1` (stereo not drawn) [Example 215, N-(1-(3-chlorophenyl)-2-hydroxyethyl)-1-(5-methyl-2-((4-(piperidin-4-yl)phenyl)amino)pyrimidin-4-yl)-1H-pyrrole-3-carboxamide], the IC50 was 250 to 500 nM in assay [1], greater than 2500 nM in assay [2] and 500 to 2500 nM in assay [3] (phospho-RSK1(S380)).

Consider `COC[C@@H](NC(=O)c1ccn(-c2nc(Nc3ccc4c(c3)OCO4)ncc2C)c1)c1ccccc1` [Example 64, (S)-1-(2-(benzo[d][1,3]dioxol-5-ylamino)-5-methyl-pyrimidin-4-yl)-N-(2-methoxy-1-phenylethyl)-1H-pyrrole-3-carboxamide], for which the IC50 lay in the range of 250 to 500 nM in assay [1], 500 to 2500 nM in assay [2] and 500 to 2500 nM in assay [3] (phospho-RSK1(S380)).

Consider `Cc1cnc(Nc2ccc(F)cc2)cc1-n1ccc(C(=O)NC(CN)c2cccc(Cl)c2)c1` (stereo not drawn) [Cmpd 159, N-(2-amino-1-(3-chloro-phenyl)ethyl)-1-(2-((4-fluoro-phenyl)amino)-5-methyl-pyridin-4-yl)-1H-pyrrole-3-carboxamide], for which the IC50 in assay [1], in assay [2] and in assay [3] (phospho-RSK1(S380)) was 500 to 2500 nM throughout.

As for `O=C(Nc1cnn(-c2ccnc(Nc3ccccc3)n2)c1)N[C@H](CO)c1cccc(Cl)c1` [Example 12, (S)-1-(1-(3-chlorophenyl)-2-hydroxy-ethyl)-3-(1-(2-(phenyl-amino)pyrimidin-4-yl)-1H-pyrazol-4-yl) urea], the IC50 in assay [1], in assay [2] and in assay [3] (phospho-RSK1(S380)) was greater than 2500 nM throughout.

As to `Cc1cnc(Nc2ccc(F)cc2Cl)cc1-n1ccc(C(=O)NC(CO)c2cccc(Cl)c2)c1` (stereo not drawn) [Example 91, 1-(2-((2-chloro-4-fluorophenyl)amino)-5-methyl-pyridin-4-yl)-N-(1-(3-chlorophenyl)-2-hydroxy-ethyl)-1H-pyrrole-3-carboxamide], the IC50 is 500 to 2500 nM in assay [1], greater than 2500 nM in assay [2] and 500 to 2500 nM in assay [3] (phospho-RSK1(S380)).

Take `O=C(NC(CO)c1ccccc1)c1ccn(-c2ccnc(Nc3ccc4c(c3)OCO4)c2)c1` (stereo not drawn) [Example 76, 1-(2-(benzo[d][1,3]dioxol-5-ylamino)pyridin-4-yl)-N-(2-hydroxy-1-phenylethyl)-1H-pyrrole-3-carboxamide]: the IC50 in assay [1] was 500 to 2500 nM; in assay [2], greater than 2500 nM; in assay [3] (phospho-RSK1(S380)) it was 250 to 500 nM.

Take `Cc1cnc(Nc2ccc3c(c2)OCCO3)nc1-n1ccc(C(=O)NC(CO)c2ccccc2)c1` (stereo not drawn) [Example 131, 1-(2-((2,3-dihydro-benzo[b][1,4]dioxin-6-yl)-amino)-5-methyl-pyrimidin-4-yl)-N-(2-hydroxy-1-phenylethyl)-1H-pyrrole-3-carboxamide]: the concentration for half-maximal inhibition (IC50) in assay [1], in assay [2] and in assay [3] (phospho-RSK1(S380)) was 250 to 500 nM in each case.

As for `Cc1cnc(NC2CCOCC2)nc1-n1cnc(C(=O)NCc2ccccc2CN)c1` [Example 283, N-(2-(aminomethyl)benzyl)-1-(5-methyl-2-((tetrahydro-2H-pyran-4-yl)amino)pyrimidin-4-yl)-1H-imidazole-4-carboxamide], the IC50 was 500 to 2500 nM in assay [1], greater than 2500 nM in assay [2] and 500 to 2500 nM in assay [3] (phospho-RSK1(S380)).

As to `COc1ccc(Nc2ncc(C)c(-n3ccc(C(=O)NC(CO)c4ccccc4)c3)n2)cc1OCCN1CCN(C)CC1` (stereo not drawn) [Example 148, N-(2-hydroxy-1-phenylethyl)-1-(2-((4-methoxy-3-(2-(4-methyl-piperazin-1-yl)ethoxy)-phenyl)amino)-5-methyl-pyrimidin-4-yl)-1H-pyrrole-3-carboxamide], the IC50 in assay [1], in assay [2] and in assay [3] (phospho-RSK1(S380)) was 500 to 2500 nM in each case.

Take `Cc1cnc(NC2CCOCC2)nc1-n1cnc(C(=O)NCc2ccc(Cl)c(CO)c2)c1` [Example 330, N-(4-chloro-3-(hydroxymethyl)benzyl)-1-(5-methyl-2-((tetrahydro-2H-pyran-4-yl)amino)pyrimidin-4-yl)-1H-imidazole-4-carboxamide]: the half-inhibitory concentration (IC50) was 500 to 2500 nM in assay [1], greater than 2500 nM in assay [2] and 250 to 500 nM in assay [3].

Take `Cc1cccc([C@@H](CO)NC(=O)c2ccn(-c3nc(N[C@H]4CCOC4)ncc3C)c2)n1` [Example 207, N-((S)-2-hydroxy-1-(6-methylpyridin-2-yl)ethyl)-1-(5-methyl-2-(((S)-tetrahydrofuran-3-yl)amino)pyrimidin-4-yl)-1H-pyrrole-3-carboxamide]: the concentration for half-maximal inhibition (IC50) in assay [1] was 250 to 500 nM; in assay [2] it was greater than 2500 nM; in assay [3] (phospho-RSK1(S380)) it was 500 to 2500 nM.

The term IC50 denotes the midpoint of a concentration-inhibition curve.

The values above are taken from patent US11925629B2, “Heterocyclic inhibitors of ERK1 and ERK2 and their use in the treatment of cancer” (Asana Biosciences, LLC, priority 2015, dated 2024).
